Results taken from US20240423914A1, “AMIDE CONTAINING LIPIDS” (Acuitas Therapeutics, Inc., priority 2023, published 2024).

Tested on: human IgG in mouse serum
Assay: Immunoglobulin G (IgG) mRNA in vivo evaluation using lipid nanoparticle compositions (human IgG ELISA of mouse serum)
Set-up: species or system CD-1/ICR mice
Details: lipid formulated as LNP (cationic lipid/DSPC/cholesterol/PEG lipid) with IgG mRNA, tail vein injection, mice, serum measured 24 hours after administration; for Serum IgG (ug/mL) @ 0.3 mg/kg: 0.3 mg mRNA/kg; for Serum IgG (ug/mL) @ 1.0 mg/kg: 1.0 mg mRNA/kg
Procedure: A lipid of Formula (I), DSPC, cholesterol and PEG-lipid of Formula (II) are solubilized in ethanol at a molar ratio of 50:10:38.5:1.5 or 47.5:10:40.7:1.8. Lipid nanoparticles (LNP) are prepared at a total lipid to mRNA weight ratio of approximately 10:1 to 40:1. Briefly, the mRNA is diluted to 0.2 mg/mL in 10 to 50 mM citrate buffer, pH 4 to 6 or 10 to 25 mM acetate buffer, pH 4 to 6. Syringe pumps are used to mix the ethanolic lipid solution with the mRNA aqueous solution at a ratio of about 1:5 to 1:3 (vol/vol) with total flow rates above 15 mL/min. The ethanol is then removed, and the external buffer replaced with PBS by dialysis. Finally, the lipid nanoparticles are filtered through a 0.2 μm pore sterile filter.
Studies are performed in 6-8-week-old CD-1/ICR mice (Charles River or Inotiv) according to guidelines established by an institutional animal care committee (ACC) and the Canadian Council on Animal Care (CCAC). Varying doses of mRNA-lipid nanoparticle are systemically administered by tail vein injection and animals euthanized at a specific time point (e.g., 24 hours) post-administration. The whole blood is collected, and the serum subsequentially separated by centrifuging the tubes of the whole blood at 2000×g for 10 minutes at 4° C. and stored at −80° C. until use for analysis.
For immunoglobulin G (IgG) ELISA (Life Diagnostics Human IgG ELISA kit), the serum samples are diluted at 100 to 20,000 fold with 1× diluent solution. 100 μL of diluted serum is dispensed into anti-human IgG coated 96-well plate in duplicate alongside human IgG standards and incubated in a plate shaker at 150 rpm at 25° C. for 45 minutes. The wells are washed 5 times with 1× wash solution using a plate washer (400 μL/well). 100 μL of HRP conjugate is added into each well and incubated in a plate shaker at the same condition above. The wells are washed 5 times again with 1× wash solution using a plate washer (400 μL/well). 100 μL of TMB reagent is added into each well and incubated in a plate shaker at the same condition above. The reaction is stopped by adding 100 μL of Stop solution to each well. The absorbance is read at 450 nm (A450) with a microplate reader. The amount of human IgG in mouse serum is determined by plotting A450 values for the assay standard against human IgG concentration.
Representative compounds of the disclosure shown in Table 2 were formulated using the following molar ratio: 50% cationic lipid/10% distearoylphosphatidylcholine (DSPC)/38.5% Cholesterol/1.5% PEG lipid 2-[2-(ω-methoxy(polyethyleneglycol2000)ethoxy]-N,N-ditetradecylacetamide) or 47.5% cationic lipid/10% DSPC/40.7% Cholesterol/1.8% PEG lipid. Relative activity was determined by measuring the amount of human IgG in mouse serum as described in Example 2. The activity was compared at a dose of 1.0 or 0.3 mg mRNA/kg and expressed as ng luciferase/g liver measured 4 hours after administration, as described in Example 1 or as μg IgG/mL serum measured 24 hours after administration, as described in Example 2. Compound numbers in Table 2 refer to the compound numbers of Table 1.

| Compound | Serum IgG (ug/mL) @ 0.3 mg/kg | Serum IgG (ug/mL) @ 1.0 mg/kg |
| --- | --- | --- |
| CCCCCCCCCCN(CCCCCCCCN(CCCCCCCC(=O)N(CCCCCCCCCC)CCCCCCCCCC)C(=O)CN(C)C)C(=O)CCCCCCCCC [Compound I-5, N-decyl-N-(8-(N-(8-(didecylamino)-8-oxooctyl)-2-(dimethylamino)acetamido)octyl)decanamide] | 25.9 ± 11.8 µg/mL | 73.4 ± 14.9 µg/mL |
| CCCCCCCCCCN(CCCCCCCCCC)C(=O)CCCCCCCCCN(CCCCCCCCCC(=O)N(CCCCCCCCCC)CCCCCCCCCC)C(=O)OCCCN(C)C [Compound I-8, 3-(dimethylamino)propyl bis(10-(didecylamino)-10-oxodecyl)carbamate] | 10.6 ± 5.0 µg/mL | – |
| CCCCCCCCCCN(CCCCCCCCCC)C(=O)CCCCCCCN(CCCCCCCC(=O)N(CCCCCCCCCC)CCCCCCCCCC)C(=O)C(F)CCN(C)C (stereo not shown) [Compound I-2, N,N-didecyl-8-(N-(8-(didecylamino)-8-oxooctyl)-4-(dimethylamino)-2-fluorobutanamido)octanamide] | 23.2 ± 6.1 µg/mL | 69.8 ± 18.2 µg/mL |
| CCCCCCCCCCCCN(CCCCCCCCCCN(CCCCCCCCCCN(CCCCCCCCCCCC)C(=O)CCCCCCC)C(=O)OCCCN1CCCC1)C(=O)CCCCCCC [Compound I-20, 3-(pyrrolidin-1-yl)propyl bis(10-(n-dodecyloctanamido)decyl)carbamate] | 7.9 ± 3.6 µg/mL | – |
| CCCCCCCCCCN(CCCCCCCCCC)C(=O)CCCCCCCCC(CCCCCCCCC(=O)N(CCCCCCCCCC)CCCCCCCCCC)OC(=O)CCCN(C)C [Compound I-10, 1,19-bis(didecylamino)-1,19-dioxononadecan-10-yl 4-(dimethylamino)butanoate] | 19.0 ± 3.3 µg/mL | – |
| CCCCCCCCCCN(CCCCCCCCCC)C(=O)CCCCCCCCC(CCCCCCCCC(=O)N(CCCC)C(CCCCCCCC)CCCCCCCC)N(CCCCCCCCCC)C(=O)CCN(C)C (stereo not shown) [Compound I-17, N^1-butyl-N^19,N^19-didecyl-10-(n-decyl-3-(dimethylamino)propanamido)-N-(heptadecan-9-yl)nonadecanediamide] | 10.1 ± 4.03 µg/mL | – |
| CCCCCCCCCCN(CCCCCCCCCC)C(=O)CCCCCCCN(CCCCCCCC(=O)N(CCCCCCCCCC)CCCCCCCCCC)C(=O)OCCCN(C)C [Compound I-7, 3-(dimethylamino)propyl bis(8-(didecylamino)-8-oxooctyl)carbamate] | 30.8 ± 7.5 µg/mL | – |
| CCCCCCCCCCN(CCCCCCCCN(CCCCCCCC(=O)N(CCCCCCCCCC)CCCCCCCCCC)C(=O)C(F)CCN(C)C)C(=O)CCCCCCCCC (stereo not shown) [Compound I-3, N-decyl-N-(8-(N-(8-(didecylamino)-8-oxooctyl)-4-(dimethylamino)-2-fluorobutanamido)octyl)decanamide] | 16.2 ± 4.3 µg/mL | 52.7 ± 8.4 µg/mL |
| CCCCCCCCCCN(CCCCCCCCCC)C(=O)CCCCCCCCC(CCCCCCCCC(=O)N(CCCCCCCCCC)CCCCCCCCCC)N(CCCCCCCCCC)C(=O)C(F)CCCN(C)C (stereo not shown) [Compound I-12, N^1,N^1,N^19,N^19-tetrakis(decyl)-10-(n-decyl-5-(dimethylamino)-2-fluoropentanamido)nonadecanediamide] | 13.9 ± 4.7 µg/mL | – |
| CCCCCCCCCCN(CCCCCCCCCC)C(=O)CCCCCC(CCCCCC(=O)N(CCCCCCCCCC)CCCCCCCCCC)OC(=O)CCCN(C)C [Compound I-18, 1,13-bis(didecylamino)-1,13-dioxotridecan-7-yl 4-(dimethylamino)butanoate] | 18.0 ± 2.0 µg/mL | – |
| CCCCCCCCCCN(CCCCCCCCCC)C(=O)CCCCCCCN(CCCCCCCC(=O)N(CCCCCCCCCC)CCCCCCCCCC)C(=O)CN(C)C [Compound I-4, N,N-didecyl-8-(N-(8-(didecylamino)-8-oxooctyl)-2-(dimethylamino)acetamido)octanamide] | 24.2 ± 4.5 µg/mL | – |
| CCCCCCCCCCN(CCCCCCCCCC)C(=O)CCCCCCCCC(CCCCCCCCC(=O)N(CCCCCCCCCC)CCCCCCCCCC)N(CCCCCCCCCC)C(=O)CCN(C)C [Compound I-1, N^1,N^1,N^19,N^19-tetrakis(decyl)-10-(N-decyl-3-(dimethylamino)propanamido)nonadecanediamide] | 18.5 ± 6.7 µg/mL | – |
| CCCCCCCCCCN(CCCCCCCCCC)C(=O)CCCCCCCN(CCCCCCCC(=O)N(CCCCCCCCCC)CCCCCCCCCC)C(=O)OCCN(C)C [Compound I-6, 2-(dimethylamino)ethyl bis(8-(didecylamino)-8-oxooctyl)carbamate] | 20.5 ± 4.0 µg/mL | 197.5 ± 39.3 µg/mL |
| CCCCCCCCCCN(CCCCCCCCCC)C(=O)CCCCCCCCC(CCCCCCCCC(=O)N(CCCCCCCCCC)CCCCCCCCCC)OC(=O)CCCCN(C)C [Compound I-9, 1,19-bis(didecylamino)-1,19-dioxononadecan-10-yl 5-(dimethylamino)pentanoate] | 13.4 ± 7.5 µg/mL | 59.5 ± 25.6 µg/mL |
